{"source": "patent US20180353507A1", "about": "“METHODS OF PREVENTING OR TREATING HYPOGLYCEMIA BY ADMINISTERING A GPR119 AGONIST” (Merck Sharp & Dohme Corp., priority 2015, published 2018)", "key": {"male Wistar Han rats": {"system": "male Wistar Han rats", "test": "Hyperinsulinemic-hypoglycemia clamp study", "assay_type": "in vivo", "details": "for change of systemic blood glucose level during clamp / glucose infusion rate needed to maintain blood glucose at 50 mg/dl: 60 minutes prior to clamp; for change of systemic blood glucose level during clamp: FIG. 6A; for glucose infusion rate needed to maintain blood glucose at 50 mg/dl: FIG. 6B; for systemic epinephrine release at hypoglycemic status: FIG. 7C; for c-peptide release: FIG. 7D", "experimental": "FIG. 5 illustrates a scheme and time-course depiction of the hyperinsulinemic-hypoglycemia clamp study performed in rats as described in EXAMPLE 4. Rats were recovered from surgery stress and pre-treated with vehicle, GLIBENCLAMIDE (5 mpk), or GPR119 agonist Compound B (10 mpk) 60 minutes prior to initiation of the clamp. From time zero, rats received an insulin bolus injection initially, then were simultaneously infused with insulin at a steady rate and glucose at an adjusted rate based on the plasma glucose level measured at every 10 minutes. Vertical bars indicate the time points when the blood specimens were collected for measurements of insulin, C-peptide, glucagon, and epinephrine/norepinephrine (0 min, 30 min, 60 min, 90 min and 120 min).\nA hyperinsulinemic-hypoglycemia clamp study was performed in male Wistar Han rats as shown in FIG. 5 and described below to explore the potential roles of GPR119 agonists in regulating glucagon secretion at the hypoglycemic status. Three groups were studied, those treated with: (1) vehicle, (2) GPR119 agonist, Compound B, C, F, H, I, M and V (see Table 1 and Table 2), at 10, 30, 100, 100, 100, 30 and 30 mpk, respectively, or (3) GLIBENCLAMIDE, a sulfonylurea insulin secretagogue known to cause hypoglycemia, at 5 mpk. Blood samples (100-150 μl) were collected for insulin, C-peptide, glucagon, and epinephrine/norepinephrine measurements. Terminal bleeding was analyzed for PK measurement.\nFIGS. 5, 6A-B, 7A-D and 8A-L illustrate the hyperinsulinemic-hypoglycemia clamp study of EXAMPLE 4. FIG. 5 is a scheme and time-course depiction of the hyperinsulinemic-hypoglycemia clamp study performed in rats. Vertical bars indicate the time points when the rats were infused with compound, or insulin/glucose, or blood specimens were collected for measurements of insulin, C-peptide, glucagon, and epinephrine/norepinephrine. After recovered from surgery stress, rats were pre-treated with vehicle, GLIBENCLAMIDE (5 mpk), or GPR119 agonist Compound B (10 mpk) 60 minutes prior to initiation of the clamp. From time zero, rats received an initial insulin bolus injection followed by simultaneous infusion of insulin at a steady rate and glucose at an adjusted rate. Rat plasma glucose levels (FIG. 6A) were monitored periodically, and the glucose infusion rate (FIG. 6B) was adjusted so that the blood glucose level would be maintained at 50 mg/dl."}, "pancreas": {"system": "pancreas", "test": "In situ rat pancreatic perfusion, insulin and glucagon release", "set-up": "species or system Wistar Han rats", "details": "500 nM compound, vs vehicle", "experimental": "Male Wistar Han rats were purchased from Charles River Laboratories Inc. at 6 weeks of age and housed 2 per cage for two weeks with food and water ad libitum. In Situ Pancreatic perfusions were performed when the rats were eight weeks old. All procedures were performed in accordance with relevant guidelines and regulations. Food was removed 4-5 hours prior to surgery. For each surgery, the rat was fully sedated with 100 mg/kg intraperitoneal (i.p.) Na-pentobarbital (NEMBUTAL) anesthesia. The depth of anesthesia was determined by a “paw pinch” test. Surgery was not initiated until the rat was fully sedated. If necessary an additional 50 mg/kg i.p. dose (50% of original) of NEMBUTAL was given. The peritoneal cavity was opened and coeliac artery was ligated dorsally. […] cannula was inserted into coeliac artery for perfusant afflux. The left gastric artery was ligated at the esophagus-stomach junction. The hepatic portal vein was ligated dorsally and cannulated ventrally (25G cannula; towards liver) for perfusant efflux. Immediately following the surgery, the rat was placed into the perfusion chamber and perfused at 3 ml/minute with modified KREBS-RINGER buffers [see. […] et al. 2012 Reproductive biology and endocrinology 10:110]. The buffers and perfusion chamber were kept warm at 37° C. and saturated with an O^2/CO^2 gases mixture. The buffers were 2 mM or 16 mM glucose and contained either vehicle (0.1%/DMSO) or Compound A (see Table 1) or 30 mM L-Arginine. The perfusant was collected by automated fraction collector at one sample per minute rate with about 90% rate of buffer recovery. Samples were frozen at -70° C. and later analyzed for total insulin and glucagon content. For the buffers: First the following mixture was prepared in water containing 10% NaCl (1.19M), 5% KCL (94 mM), 10% […] (250 mM), 5% CaCl2-2H2O (50 mM), 5% MgSO4-7H2O (24 mM), and 5% KH2PO4 (24 mM). The buffer was then oxygenated for 20 minutes, and 3% dextran and 0.2% BSA (insulin free) were added. Glucose was added from 1M stock solution as needed. FIGS. 4A-B illustrate a pancreatic perfusion assay in Wistar Han rats, and insulin (left panel) and glucagon (right panel) release measurements. As shown (lines with open circles), a basal level of insulin and a fair amount of glucagon were secreted from pancreas when perfused with low glucose (6 mM glucose). […] Application of GPR119 agonist (500 nM Compound A, lines with solid circles) enhanced both basal and glucose-stimulated pancreas insulin secretion (left panel)."}, "[1]": {"details": "30 mpk, hypoglycemic status (50 mg/dL), FIGS. 8A-L"}, "[2]": {"details": "100 mpk, hypoglycemic status (50 mg/dL), FIGS. 8A-L"}, "[3]": {"details": "high glucose (12 mM glucose) perfusion"}, "[4]": {"details": "low glucose (6 mM glucose) perfusion"}}}
{"smiles": "COCc1noc(N2CCC([C@H]3C[C@H]3CCOc3ccc(S(C)(=O)=O)c(F)c3)CC2)n1", "note": "[Compound M]", "values": [{"measurement": "blood glucagon secretion at hypoglycemic status", "setting": "male Wistar Han rats; [1]", "result": "significantly elevated"}]}
{"smiles": "COc1ccc(Cl)cc1C(=O)NCCc1ccc(S(=O)(=O)NC(=O)NC2CCCCC2)cc1", "note": "[GLIBENCLAMIDE, glibenclamide, reference compound]", "values": [{"measurement": "change of systemic blood glucose level during clamp", "setting": "male Wistar Han rats; 5 mpk", "result": "rapidly decreases blood glucose level"}, {"measurement": "glucose infusion rate needed to maintain blood glucose at 50 mg/dl", "setting": "male Wistar Han rats; 5 mpk", "result": "requires much faster glucose infusion rate"}, {"measurement": "systemic epinephrine release at hypoglycemic status", "setting": "male Wistar Han rats; 5 mpk", "result": "inhibited this elevation"}, {"measurement": "c-peptide release", "setting": "male Wistar Han rats; 5 mpk", "result": "promotes c-peptide release"}, {"measurement": "blood glucagon secretion at hypoglycemic status", "setting": "male Wistar Han rats; 5 mpk, blood glucose dropping to 50 mg/dL, 15-60 minutes, FIGS. 7A-B", "result": "suppressed glucagon secretion"}]}
{"smiles": "CCc1cnc(N2CCC(c3nc(COc4ccc(-n5cnnn5)cc4)cs3)CC2)nc1", "note": "[Compound H]", "values": [{"measurement": "blood glucagon secretion at hypoglycemic status", "setting": "male Wistar Han rats; [2]", "result": "significantly elevated"}]}
{"smiles": "CS(=O)(=O)c1ccc(OCC[C@@H]2C[C@@H]2C2CCN(c3ncc(Cl)cn3)CC2)nc1", "note": "[Compound C]", "values": [{"measurement": "blood glucagon secretion at hypoglycemic status", "setting": "male Wistar Han rats; [1]", "result": "significantly elevated"}]}
{"smiles": "C[S+]([O-])c1ccc(OCCCC2CCN(C(=O)OC(C)(C)C)CC2)cc1F", "note": "(centres unmarked) [Compound I]", "values": [{"measurement": "blood glucagon secretion at hypoglycemic status", "setting": "male Wistar Han rats; [2]", "result": "significantly elevated"}]}
{"smiles": "COc1c(Nc2ccc(S(C)(=O)=O)nc2C)ncnc1OC1CCN(C(=O)OC(C)C)CC1", "note": "[Compound F]", "values": [{"measurement": "blood glucagon secretion at hypoglycemic status", "setting": "male Wistar Han rats; [2]", "result": "significantly elevated"}]}
{"smiles": "CC1(OC(=O)C2CC3COCC(C2)C3Oc2ncnc(Nc3ccc(C#N)cc3Cl)c2F)CC1", "note": "(centres unmarked) [Compound A]", "values": [{"measurement": "glucose-repressed glucagon secretion from pancreas", "setting": "pancreas; [3]", "result": "did not affect"}, {"measurement": "glucose-stimulated pancreas insulin secretion", "setting": "pancreas; [3]", "result": "enhanced"}, {"measurement": "basal glucagon release from pancreas", "setting": "pancreas; [4]", "result": "elevated basal glucagon release"}, {"measurement": "basal pancreas insulin secretion", "setting": "pancreas; [4]", "result": "enhanced"}]}
{"smiles": "CCc1noc(N2CCC([C@H]3C[C@H]3CCOc3ccc(S(C)(=O)=O)cn3)CC2)n1", "note": "[Compound V]", "values": [{"measurement": "blood glucagon secretion at hypoglycemic status", "setting": "male Wistar Han rats; [1]", "result": "significantly elevated"}]}
{"smiles": "COCc1cnc(N2CCC([C@H]3C[C@H]3CCOc3cc(F)c(CC(=O)N4CCC4)c(F)c3)CC2)nc1", "note": "[Compound B]", "values": [{"measurement": "change of systemic blood glucose level during clamp", "setting": "male Wistar Han rats; 10 mpk, compared with vehicle", "result": "comparable and slower"}, {"measurement": "glucose infusion rate needed to maintain blood glucose at 50 mg/dl", "setting": "male Wistar Han rats; 10 mpk, compared with vehicle", "result": "comparable and slower"}, {"measurement": "systemic epinephrine release at hypoglycemic status", "setting": "male Wistar Han rats; 10 mpk", "result": "only slightly altered"}, {"measurement": "c-peptide release", "setting": "male Wistar Han rats; 10 mpk", "result": "indistinguishable from vehicle control"}, {"measurement": "blood glucagon secretion at hypoglycemic status", "setting": "male Wistar Han rats; 10 mpk, blood glucose dropping to 50 mg/dL, 15-60 minutes, FIGS. 7A-B", "result": "significantly elevated"}]}
